Reference: PubChem BioAssay AID330 (DTP/NCI, 2004)
“And” between values parts separate entries of the source, which are not always exact repeats. Identical values can stand only once. Inconclusive results and toxic doses are left out. How the source made its calls: active means survival T/C of 150% or more; inactive means T/C below 125% in these data.

Tested on: P388 leukemia ip, CD2F1 mice, survival T/C
Test: NCI In Vivo Anticancer Drug Screen. Data for tumor model P388 Leukemia (intraperitoneal) in CD2F1 (CDF1) mice
Settings: endpoint: median survival time, higher = longer survival
Method in brief: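 Mice carrying the transplanted tumor received test compound or vehicle. Survival was recorded in each group, and the value is the treated-group measurement divided by that of the vehicle-treated control group.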

[1] = dose: 50.0 mg/kg/injection, schedule: Q01DX005 (ip), vehicle: saline with Tween-80
[2] = dose: 100.0 mg/kg/injection, schedule: Q01DX005 (ip), vehicle: saline with Tween-80
[3] = dose: 200.0 mg/kg/injection, schedule: Q01DX005 (ip), vehicle: saline with Tween-80
[4] = dose: 50.0 mg/kg/injection, schedule: Q01DX009 (ip), vehicle: saline with Tween-80
[5] = dose: 100.0 mg/kg/injection, schedule: Q01DX009 (ip), vehicle: saline with Tween-80
[6] = dose: 50.0 mg/kg/injection, schedule: Q01DX005 (ip), vehicle: Klucel (hydroxypropylcellulose) (HPC)
[7] = dose: 100.0 mg/kg/injection, schedule: Q01DX005 (ip), vehicle: Klucel (hydroxypropylcellulose) (HPC)
[8] = dose: 200.0 mg/kg/injection, schedule: Q01DX005 (ip), vehicle: Klucel (hydroxypropylcellulose) (HPC)
[9] = dose: 6.25 mg/kg/injection, schedule: Q01DX005 (ip), vehicle: saline with Tween-80
[10] = dose: 12.5 mg/kg/injection, schedule: Q01DX005 (ip), vehicle: saline with Tween-80
[11] = dose: 25.0 mg/kg/injection, schedule: Q01DX005 (ip), vehicle: saline with Tween-80
[12] = dose: 60.0 mg/kg/injection, schedule: Q01DX005 (ip), vehicle: saline with Tween-80
[13] = dose: 120.0 mg/kg/injection, schedule: Q01DX005 (ip), vehicle: saline with Tween-80
[14] = dose: 240.0 mg/kg/injection, schedule: Q01DX005 (ip), vehicle: saline with Tween-80
[15] = dose: 50.0 mg/kg/injection, schedule: Q01DX009 (ip), vehicle: saline
[16] = dose: 100.0 mg/kg/injection, schedule: Q01DX009 (ip), vehicle: saline
[17] = dose: 200.0 mg/kg/injection, schedule: Q01DX009 (ip), vehicle: saline

Measured: T/C

COc1ccc(-c2coc3c4c(ccc3c2=O)OC(C)(C)C=C4)cc1
inactive: [1] 101 % of control | [2] 99 % of control | [3] 100 % of control

C=CC(O)C(C)C(=O)O (stereo not given)
inactive: dose: 6.25 mg/kg/injection, schedule: Q01DX005 (ip), vehicle: saline 93 % of control | dose: 12.5 mg/kg/injection, schedule: Q01DX005 (ip), vehicle: saline 95 % of control | dose: 25.0 mg/kg/injection, schedule: Q01DX005 (ip), vehicle: saline 90 % of control | [2] 98 % of control | [3] 98 % of control

CCCCCCCCCCSCC(N)C(=O)OCC (stereo not given)
inactive: [4] 99 % of control | [5] 94 % of control

CCOC(=O)C1=C(C)N[C@@H](c2ccccc2[N+](=O)[O-])N[C@H]1c1ccccc1[N+](=O)[O-]
inactive: [6] 101 % of control | [7] 101 % of control | [8] 92 % of control

Cc1cccc2c1nc(C)c1nc(-c3ccccc3)oc12
inactive: [9] 101 % of control | [10] 91 % of control | [11] 90 % of control | [1] 89 % of control | [2] 89 % of control | [3] 94 % of control

CC1C(=O)c2cc3c(cc2CCN(C)Cc2c1ccc1c2OCO1)OCO3 (stereo not given)
inactive: dose: 5.0 mg/kg/injection, schedule: Q01DX009 (ip), vehicle: saline with Tween-80 100 % of control | dose: 10.0 mg/kg/injection, schedule: Q01DX009 (ip), vehicle: saline with Tween-80 99 % of control | dose: 12.5 mg/kg/injection, schedule: Q01DX009 (ip), vehicle: saline with Tween-80 90 % of control | dose: 25.0 mg/kg/injection, schedule: Q04DX003 (ip), vehicle: saline with Tween-80 109 % of control | [4] 90 % of control | dose: 50.0 mg/kg/injection, schedule: Q04DX003 (ip), vehicle: saline with Tween-80 104 % of control

COc1cc2c(cc1C(C)c1cc(OC)c(OC)c(OC)c1)OCO2 (stereo not given)
inactive: [6] 99 % of control | [7] 97 % of control | [8] 91 % of control

CCCSC(=O)Nc1cc(OC)ccc1OC
inactive: [12] 98 % of control | [13] 98 % of control | [14] 104 % of control

Nc1nc2ccc(NCc3ccc(C(=O)NC(CCC(=O)O)C(=O)O)cc3)cc2c(=O)[nH]1 (stereo not given)
inactive: [9] 108 % of control | [10] 108 % of control | [11] 103 % of control and 108 % of control | [1] 113 % of control and 117 % of control

CCCNC(=O)CCC(NS(=O)(=O)c1ccc(NC(C)=O)cc1)C(=O)O (stereo not given)
inactive: [6] 100 % of control | [7] 98 % of control | [8] 100 % of control

Cc1ccc(S(=O)(=O)NC(=O)O/N=C/c2ccco2)cc1
inactive: [6] 98 % of control | [7] 98 % of control | [8] 100 % of control

Nc1ccc(NC(=O)c2ccc([N+](=O)[O-])cc2)cc1
inactive: dose: 25.0 mg/kg/injection, schedule: Q01DX009 (ip), vehicle: other 115 % of control | dose: 50.0 mg/kg/injection, schedule: Q01DX009 (ip), vehicle: other 112 % of control | dose: 100.0 mg/kg/injection, schedule: Q01DX009 (ip), vehicle: other 106 % of control | dose: 200.0 mg/kg/injection, schedule: Q01DX009 (ip), vehicle: other 115 % of control | dose: 400.0 mg/kg/injection, schedule: Q01DX009 (ip), vehicle: other 123 % of control

CC(=O)n1c(N)nc2ccccc21
inactive: [15] 104 % of control | [16] 104 % of control | [17] 90 % of control

CSC(=S)/C(=C/Nc1ccccn1)c1ccccc1
inactive: dose: 0.93 mg/kg/injection, schedule: Q01DX005 (ip), vehicle: Klucel (hydroxypropylcellulose) (HPC) 100 % of control | dose: 1.87 mg/kg/injection, schedule: Q01DX005 (ip), vehicle: Klucel (hydroxypropylcellulose) (HPC) 94 % of control

CN(CCN1C(=O)c2cccc3cc(N)cc(c23)C1=O)CCN1C(=O)c2cccc3cc(N)cc(c23)C1=O
inactive: [1] 112 % of control | [2] 106 % of control | [3] 107 % of control

CN(C(=S)Nc1ccccc1)c1nnn(C)n1
inactive: [4] 98 % of control | [5] 100 % of control | dose: 200.0 mg/kg/injection, schedule: Q01DX009 (ip), vehicle: saline with Tween-80 107 % of control

FC12CCC(c3ccccc3)(CC1)CC2
inactive: dose: 100.0 mg/kg/injection, schedule: Q04DX003 (ip), vehicle: Klucel (hydroxypropylcellulose) (HPC) 98 % of control | dose: 200.0 mg/kg/injection, schedule: Q04DX003 (ip), vehicle: Klucel (hydroxypropylcellulose) (HPC) 100 % of control | dose: 400.0 mg/kg/injection, schedule: Q04DX003 (ip), vehicle: Klucel (hydroxypropylcellulose) (HPC) 103 % of control

O=C1CSC(c2cc(O)ccc2O)N1c1nncs1 (stereo not given)
inactive: [1] 90 % of control | [2] 97 % of control | [3] 91 % of control

CC(=O)OC1CCC2C3CCC4=CC(=O)C(C(O)(C(F)(F)F)C(F)(F)F)CC4(C)C3CCC12C (stereo not given)
inactive: dose: 100.0 mg/kg/injection, schedule: Q01DX001 (sc), vehicle: steriod suspending solution 100 % of control | dose: 200.0 mg/kg/injection, schedule: Q01DX001 (sc), vehicle: steriod suspending solution 100 % of control | dose: 400.0 mg/kg/injection, schedule: Q01DX001 (sc), vehicle: steriod suspending solution 104 % of control

Nc1nnc2nc(CC(=O)c3cccc([N+](=O)[O-])c3)c(CC(=O)c3cccc([N+](=O)[O-])c3)nn12
inactive: [12] 96 % of control | [13] 100 % of control | [14] 100 % of control

Cc1ccc2nc(-c3ccc4nc(-c5ccc(N=Nc6ccc(-c7nc8ccc(-c9nc%10ccc(C)c(S(=O)(=O)O)c%10s9)cc8s7)cc6)cc5)sc4c3)sc2c1S(=O)(=O)O
inactive: [15] 113 % of control and 116 % of control | [16] 116 % of control and 121 % of control | [17] 112 % of control and 123 % of control

O=C1CCC2=C1C(c1ccccc1)C1=C(CCC1=O)O2
inactive: dose: 100.0 mg/kg/injection, schedule: Q04DX002 (ip), vehicle: Klucel (hydroxypropylcellulose) (HPC) 100 % of control | dose: 200.0 mg/kg/injection, schedule: Q04DX002 (ip), vehicle: Klucel (hydroxypropylcellulose) (HPC) 100 % of control | dose: 400.0 mg/kg/injection, schedule: Q04DX002 (ip), vehicle: Klucel (hydroxypropylcellulose) (HPC) 111 % of control

N#CC(c1ccccc1)C(c1ccccc1)c1cccc2ccccc12 (stereo not given)
inactive: dose: 6.25 mg/kg/injection, schedule: Q01DX009 (ip), vehicle: suspension in saline 98 % of control | dose: 12.5 mg/kg/injection, schedule: Q01DX009 (ip), vehicle: suspension in saline 97 % of control | dose: 25.0 mg/kg/injection, schedule: Q01DX009 (ip), vehicle: suspension in saline 97 % of control | dose: 50.0 mg/kg/injection, schedule: Q01DX009 (ip), vehicle: suspension in saline 97 % of control | dose: 100.0 mg/kg/injection, schedule: Q04DX002 (ip), vehicle: saline with Tween-80 104 % of control | dose: 200.0 mg/kg/injection, schedule: Q04DX002 (ip), vehicle: saline with Tween-80 101 % of control | dose: 400.0 mg/kg/injection, schedule: Q04DX002 (ip), vehicle: saline with Tween-80 107 % of control

Cc1ncc(CO)c(C2NOCc3nscc32)c1O (stereo not given)
inactive: dose: 3.5 mg/kg/injection, schedule: Q04DX003 (ip), vehicle: saline 100 % of control | dose: 7.0 mg/kg/injection, schedule: Q04DX003 (ip), vehicle: saline 95 % of control | dose: 14.0 mg/kg/injection, schedule: Q04DX003 (ip), vehicle: saline 100 % of control
